This note sets out measurements from patent US20250319073A1, “COMPOSITIONS AND METHODS FOR THE TREATMENT OF HUNTINGTON’S DISEASE AND HTT PROTEINOPATHIES” (priority 2022, published 2025).

This assay concerns Peripheral Blood Mononuclear Cells (PBMC). Briefly: MitoSOX mitochondrial ROS assay (flow cytometry) in PBMCs of treated mice. The class given is in vivo, mouse. As to conditions: R6/2 mice, 0.5 mg/kg / 5 mg/kg i.p. QD, PBMCs collected at 13 weeks of age. As to the method:
Euthanasia & Sample Collection—At 13 weeks of age, 9 mice per group were euthanized by deep anesthesia with sodium pentobarbital (180 mg/kg). The remaining mice were euthanized and any samples were not collected, except the tail and ear samples. A terminal blood sample (as much as possible) was collected by cardiac puncture into a syringe. The whole blood was placed in Li-Hep tube at RT and used immediately for preparation of PBMCs. The whole brain was collected and fresh frozen in liquid nitrogen and stored at −80° C. Blood was collected also from extra animals as staining controls for the flow cytometry assays (n=3 extra animals per day). Tail and ear samples were collected for possible post-study re-genotype analysis. […] Right before measurement 1 μL of propidium iodide was added and the cell number and viability was determined by MACSquant Analyzer 10 flow cytometer. […] The cells were analyzed immediately after the staining using the MACSQuant Analyzer 10 (Miltenyi Biotec) and Cytation 3 (Cell titerglow). […] Oxidation of MitoSOX™ Red reagent by superoxide produces red fluorescence and can be used to reliably the relative differences in mitochondrial ROS formation in cells. […] Concentrations exceeding 5 μM can produce cytotoxic effects, including altered mitochondrial morphology and redistribution of fluorescence to nuclei and the cytosol. • 2. […]
A general note: Flow cytometry measures light scatter and fluorescence of single cells or particles in a stream.

Regarding `Cc1cc(O)cc(C)c1C[C@H](NC(=O)[C@H](N)CCCNC(=N)N)C(=O)N[C@@H](CCCCN)c1nc(Cc2ccccc2)no1.Cl.Cl` [Compound (Ia), (R)-2-amino-N—((S)-1-(((S)-5-amino-1-(3-benzyl-1,2,4-oxadiazol-5-yl)pentyl)amino)-3-(4-hydroxy-2,6-dimethylphenyl)-1-oxopropan-2-yl)-5-guanidinopentanamide], the “mitochondrial ROS formation (MitoSOX) in PBMCs, R6/2+Vehicle vs treated R6/2” value is on record as “no significant differences”.
